Like-named read-outs stand apart in the source and are kept apart here.
Key:
[1] = test system: A375-XP cells (Vemurafenib-resistant); assay: Dose-response curves and IC50, PrestoBlue cell viability, 72 h; type: cell-based, human; conditions: n.e. = did not suppress growth below 50% in the tested concentration range, read-out: Half-maximal inhibitory concentration value (IC50), Mean
A375 cells = assay: Synergy determination with the Chou-Talalay method (CompuSyn), cell viability 72 h; type: cell-based, human; conditions: 72 h cell viability, Chou-Talalay / Synergyfinder
Protocol: The Chou-Talalay method to determine possible synergistic effects of selected kinase inhibitor combinations was used as described in [19]. […] Cells were treated with either single inhibitors or combinations thereof at indicated amounts in technical triplicates. The amounts were pre-determined from each inhibitor’s IC50 value and inhibitors were assayed in a defined dilution series and at constant ratio when combined. […] Combination Index (CI) values showing either synergy (< 1) or antagonism (> 1) were calculated with the CompuSyn software (ComboSyn, Inc).

[2] = test system: A375-GP cells (Dabrafenib-resistant); assay: Dose-response curves and IC50, PrestoBlue cell viability, 72 h; type: cell-based, human; conditions: n.e. = did not suppress growth below 50% in the tested concentration range, read-out: Half-maximal inhibitory concentration value (IC50), Mean
A375 cells (parental) [3] = assay: as above; type: cell-based, human; conditions: read-out: Half-maximal inhibitory concentration value (IC50), Mean
501Mel cells (parental) = assay: Kinase inhibitor library screening, PrestoBlue cell viability, 1 or 10 μM, 72 h; conditions: 501Mel Parental, 72 h
How it was run: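 PrestoBlue viability readout after 72 h exposure to each inhibitor at 1 or 10 μM, reported relative to untreated cells as % viability. Lines tested: sensitive parental plus derivatives resistant to Vemurafenib (XP) or Dabrafenib (GP), each run at least in duplicate.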

IGR37 cells (parental) = assay: as above; conditions: IGR37 Parental, 72 h
[4] = test system: 501Mel-XP cells (Vemurafenib-resistant); assay: as above; conditions: 501Mel XP, 72 h
[5] = test system: 501Mel-GP cells (Dabrafenib-resistant); assay: as above; conditions: 501Mel GP, 72 h
[6] = test system: A375-XP cells (Vemurafenib-resistant); assay: as above; conditions: A375 XP, 72 h
[7] = test system: IGR37-XP cells (Vemurafenib-resistant); assay: as above; conditions: IGR37 XP, 72 h
A375 cells (parental) [8] = assay: as above; conditions: A375 Parental, 72 h
[9] = test system: A375-GP cells (Dabrafenib-resistant); assay: as above; conditions: A375 GP, 72 h
[10] = test system: IGR37-GP cells (Dabrafenib-resistant); assay: as above; conditions: IGR37 GP, 72 h
[11] = n.e. = did not suppress growth below 50% in the tested concentration range

Cc1ccc([N+](=O)[O-])cc1S(=O)(=O)N(C)/N=C/c1cnc2ccc(Br)cn12 [PIK-75, reference compound]
IC50 [1]: 53 nM
synergistic effects with the BRAF inhibitors Vemurafenib and/or Dabrafenib (in words) (A375 cells): synergistic effects only with Dabrafenib
IC50 [2]: 45 nM
IC50 (A375 cells (parental) [3]; [11]): 55 nM
Cell viability in kinase inhibitor library screening, 501Mel Parental, 1μΜ (501Mel cells (parental); 1μΜ, in %): 0.758
Cell viability in kinase inhibitor library screening, 501Mel Parental, 10μΜ (501Mel cells (parental); 10μΜ, in %): 0.0735
Cell viability in kinase inhibitor library screening, IGR37 Parental, 1μΜ (IGR37 cells (parental); 1μΜ, in %): 1.2
Cell viability in kinase inhibitor library screening, IGR37 Parental, 10μΜ (IGR37 cells (parental); 10μΜ, in %): 0.6
Cell viability in kinase inhibitor library screening, 501Mel XP, 1μΜ ([4]; 1μΜ, in %): -0.0746
Cell viability in kinase inhibitor library screening, 501Mel XP, 10μΜ ([4]; 10μΜ, in %): -0.125
Cell viability in kinase inhibitor library screening, 501Mel GP, 1μΜ ([5]; 1μΜ, in %): 0.164
Cell viability in kinase inhibitor library screening, 501Mel GP, 10μΜ ([5]; 10μΜ, in %): 0.3
Cell viability in kinase inhibitor library screening, A375 XP, 1μΜ ([6]; 1μΜ): 5.1
Cell viability in kinase inhibitor library screening, A375 XP, 10μΜ ([6]; 10μΜ): 2.3
Cell viability in kinase inhibitor library screening, IGR37 XP, 10μΜ ([7]; 10μΜ): 0.7%
Cell viability in kinase inhibitor library screening, IGR37 XP, 1μΜ ([7]; 1μΜ, in %): 1.2
Cell viability in kinase inhibitor library screening, A375 Parental, 10μΜ (A375 cells (parental) [8]; 10μΜ): 1.8
Cell viability in kinase inhibitor library screening, A375 Parental, 1μΜ (A375 cells (parental) [8]; 1μΜ): 4.1
Cell viability in kinase inhibitor library screening, A375 GP, 1μΜ ([9]; 1μΜ): 4.0
Cell viability in kinase inhibitor library screening, A375 GP, 10μΜ ([9]; 10μΜ): 1.2
Cell viability in kinase inhibitor library screening, IGR37 GP, 10μΜ ([10]; 10μΜ): 1.1%
Cell viability in kinase inhibitor library screening, IGR37 GP, 1μΜ ([10]; 1μΜ, in %): 1.7

CN1CC[C@H](c2c(O)cc(O)c3c(=O)cc(-c4ccccc4Cl)oc23)[C@H](O)C1.Cl [Flavopiridol HCL]
IC50 [1]: 136 nM
synergistic effects with the BRAF inhibitors Vemurafenib and/or Dabrafenib (in words) (A375 cells): did not act synergistically
IC50 [2]: 123 nM
IC50 (A375 cells (parental) [3]; [11]): 112 nM

O=C(NC1CCNCC1)c1[nH]ncc1NC(=O)c1c(Cl)cccc1Cl [AT7519, reference compound]
IC50 ([1]; Homo sapiens): 631 nM
synergistic effects with the BRAF inhibitors Vemurafenib and/or Dabrafenib (in words) (A375 cells): did not act synergistically
IC50 ([2]; Homo sapiens): 645 nM
IC50 (A375 cells (parental) [3]; Homo sapiens, A-375, n.e. = did not suppress growth below 50% in the tested concentration range): 544 nM
cell viability (kinase inhibitor library screening) (501Mel cells (parental); 1μΜ): 82.3%
cell viability (kinase inhibitor library screening) (501Mel cells (parental); 10μΜ): 1.4%
cell viability (kinase inhibitor library screening) (IGR37 cells (parental); 1μΜ): 79.7%
cell viability (kinase inhibitor library screening) (IGR37 cells (parental); 10μΜ): 2.2%
cell viability (kinase inhibitor library screening) ([4]; 1μΜ): 73.2%
cell viability (kinase inhibitor library screening) ([4]; 10μΜ): 0.0524%
cell viability (kinase inhibitor library screening) ([5]; 1μΜ): 96.2%
cell viability (kinase inhibitor library screening) ([5]; 10μΜ): 0.428%
cell viability (kinase inhibitor library screening) ([6]; 1μΜ): 37.2%
cell viability (kinase inhibitor library screening) ([6]; 10μΜ): 7.6%
cell viability (kinase inhibitor library screening) ([7]; 1μΜ): 10.8%
cell viability (kinase inhibitor library screening) ([7]; 10μΜ): 2.4%
cell viability (kinase inhibitor library screening) (A375 cells (parental) [8]; 10μΜ): 8.2%
cell viability (kinase inhibitor library screening) (A375 cells (parental) [8]; 1μΜ): 30.7%
cell viability (kinase inhibitor library screening) ([9]; 1μΜ): 17.7%
cell viability (kinase inhibitor library screening) ([9]; 10μΜ): 4.8%
cell viability (kinase inhibitor library screening) ([10]; 1μΜ): 35.9%
cell viability (kinase inhibitor library screening) ([10]; 10μΜ): 3.9%

Source: paper PMC6364417, “Kinase inhibitor library screening identifies synergistic drug combinations effective in sensitive and resistant melanoma cells” (Journal of Experimental & Clinical Cancer Research : CR, 2019)
